ChEMBL document CHEMBL5712891, “Inhibition of BET bromodomain-dependent XIAP and FLIP expression sensitizes KRAS-mutated NSCLC to pro-apoptotic agents” (Cell Death Dis, 2016)
Activity calls are given as the source filed them. The calls are words filed in the database; no cut-off is given here.

Columns and labels:
NCI-H460 [1] = assay: Induction of apoptosis in human NCI-H460 cells assessed as early apoptotic cells at 2.5 uM for 24 hrs by annexin V-PI staining based flow cytometric analysis (reference value: 0.2%); type: functional
SK-LU-1 = assay: Downregulation of FLIP mRNA expression level in human SK-LU-1 cells at 0.1 to 1 uM for 24 hrs by qRT-PCR analysis; type: functional, cell-based; details: dose 0.1-1 µM
A549 [2] = assay: Induction of apoptosis in human A549 cells assessed as viable cells at 0.5 uM for 24 hrs by annexin V-PI staining based flow cytometric analysis (reference value: 96%); type: functional; details: read-out: Activity
DV-90 [3] = assay: Downregulation of XIAP mRNA expression level in human DV-90 cells at 0.1 to 1 uM for 24 hrs by qRT-PCR analysis; type: functional, cell-based; details: dose 0.1-1 µM
NCI-H1373 [4] = assay: Induction of cell cycle arrest in human NCI-H1373 cells assessed as accumulation of cells at G2/M phase at 0.5 uM for 24 hrs by Click-iT EdU Alexa Fluor 647 flow cytometric assay kit analysis (reference value: 13%); type: functional
NCI-H23 = assay: Downregulation of XIAP protein expression level in human NCI-H23 cells at 1 uM for 24 hrs by […] analysis; type: functional, cell-based
DV-90 [5] = assay: Downregulation of C-MYC mRNA expression level in human DV-90 cells at 0.1 to 1 uM for 24 hrs by qRT-PCR analysis; type: functional, cell-based; details: dose 0.1-1 µM
A549 [6] = assay: Induction of cell cycle arrest in human A549 cells assessed as accumulation of cells at S phase at 0.5 uM for 24 hrs by Click-iT EdU Alexa Fluor 647 flow cytometric assay kit analysis (reference value: 35%); type: functional
HFF-1 = assay: Cytotoxicity against HFF-1 cells at 500 to 2500 nM in presence of TNF by cell titre glo assay; type: toxicity, cell-based; details: human, hff-1, 2.5 µM; dose 500-2500 nM
NCI-H1792 = assay: Downregulation of c-MYC protein expression level in human NCI-H1792 cells at 1 uM for 24 hrs by […] analysis; type: functional, cell-based
NCI-H2347 = assay: Downregulation of c-MYC protein expression level in human NCI-H2347 cells at 1 uM for 24 hrs by […] analysis; type: functional, cell-based
[7] = Toxicity in SCID mouse xenografted with human A549 cells assessed as body weight loss administered at 80 mg/kg, ip for 7 days along with cisplatin for 5 days follwed by compound treatment for 14 days relative to control; type: organism-based; details: in vivo, 672 h, time 28 day
NCI-H1373 [8] = assay: Induction of TRAIL dependent apoptosis in human NCI-H1373 cells assessed as early apoptotic cells at 1 uM by annexin V-PI staining based flow cytometric analysis (reference value: 0.5%); type: functional
NCI-H1373 [9] = assay: Induction of apoptosis in human NCI-H1373 cells assessed as early apoptotic cells at 2.5 uM for 24 hrs by annexin V-PI staining based flow cytometric analysis (reference value: 0.6%); type: functional
DV-90 [10] = assay: Induction of cell cycle arrest in human DV-90 cells assessed as accumulation of cells at G0/G1 phase at 0.1 uM for 24 hrs by Click-iT EdU Alexa Fluor 647 flow cytometric assay kit analysis (reference value: 44%); type: functional
[11] = Toxicity in SCID mouse xenografted with human A549 cells assessed as body weight loss administered at 80 mg/kg, ip for 28 days relative to control; type: organism-based; details: in vivo, 672 h, time 28 day
A549 [12] = assay: Induction of cell cycle arrest in human A549 cells assessed as accumulation of cells at G0/G1 phase at 1 uM for 24 hrs by Click-iT EdU Alexa Fluor 647 flow cytometric assay kit analysis (reference value: 61%); type: functional
NCI-H460 [13] = assay: Induction of apoptosis in human NCI-H460 cells assessed as necrotic cells at 2.5 uM for 24 hrs by annexin V-PI staining based flow cytometric analysis (reference value: 2.7%); type: functional
NCI-H460 [14] = assay: Induction of apoptosis in human NCI-H460 cells assessed as late apoptotic cells at 0.5 uM for 24 hrs by annexin V-PI staining based flow cytometric analysis (reference value: 3.0%); type: functional
NCI-H441 = assay: Downregulation of FLIP mRNA expression level in human NCI-H441 cells at 0.1 to 1 uM for 24 hrs by qRT-PCR analysis; type: functional, cell-based; details: dose 0.1-1 µM
DV-90 [15] = assay: Induction of apoptosis in human DV-90 cells assessed as viable cells at 0.5 uM for 48 hrs by annexin V-PI staining based flow cytometric analysis (reference value: 81.9%); details: DV-90, 48 h
DV-90 [16] = assay: Induction of apoptosis in human DV-90 cells assessed as necrotic cells at 0.5 uM for 48 hrs by annexin V-PI staining based flow cytometric analysis (reference value: 8.4%)
A549 [17] = assay: Induction of apoptosis in human A549 cells assessed as late apoptotic cells at 2.5 uM for 24 hrs by annexin V-PI staining based flow cytometric analysis (reference value: 1.2%); type: functional
A549 [18] = assay: Induction of apoptosis in human A549 cells assessed as necrotic cells at 2.5 uM for 24 hrs by annexin V-PI staining based flow cytometric analysis (reference value: 0.9%); type: functional
NCI-H1373 [19] = assay: Induction of apoptosis in human NCI-H1373 cells assessed as early apoptotic cells at 0.5 uM for 24 hrs by annexin V-PI staining based flow cytometric analysis (reference value: 1.7%); type: functional
A549 [20] = assay: Induction of apoptosis in human A549 cells assessed as early apoptotic cells at 0.5 uM for 24 hrs by annexin V-PI staining based flow cytometric analysis (reference value: 0.2%); type: functional
DV-90 [21] = assay: Induction of cell cycle arrest in human DV-90 cells assessed as accumulation of cells at S phase at 1 uM for 24 hrs by Click-iT EdU Alexa Fluor 647 flow cytometric assay kit analysis (reference value: 30%); type: functional
NCI-H1373 [22] = assay: Induction of cell cycle arrest in human NCI-H1373 cells assessed as accumulation of cells at G0/G1 phase at 0.5 uM for 24 hrs by Click-iT EdU Alexa Fluor 647 flow cytometric assay kit analysis (reference value: 45%); type: functional
NCI-H460 [23] = assay: Induction of cell cycle arrest in human NCI-H460 cells assessed as accumulation of cells at S phase at 0.1 uM for 24 hrs by Click-iT EdU Alexa Fluor 647 flow cytometric assay kit analysis (reference value: 54%); type: functional
NCI-H460 [24] = assay: Induction of cell cycle arrest in human NCI-H460 cells assessed as accumulation of cells at S phase at 0.5 uM for 24 hrs by Click-iT EdU Alexa Fluor 647 flow cytometric assay kit analysis (reference value: 54%); type: functional
NCI-H460 [25] = assay: Induction of cell cycle arrest in human NCI-H460 cells assessed as accumulation of cells at G0/G1 phase at 0.1 uM for 24 hrs by Click-iT EdU Alexa Fluor 647 flow cytometric assay kit analysis (reference value: 45%); type: functional
NCI-H460 [26] = assay: Induction of cell cycle arrest in human NCI-H460 cells assessed as accumulation of cells at S phase at 0.25 uM for 24 hrs by Click-iT EdU Alexa Fluor 647 flow cytometric assay kit analysis (reference value: 54%); type: functional

SMILES: Cc1sc2c(c1C)C(c1ccc(Cl)cc1)=N[C@@H](CC(=O)OC(C)(C)C)c1nnc(C)n1-2
- Activity (NCI-H460 [1]): 0.4%
- Activity (SK-LU-1): Active
- viability at 0.5 µM (A549 [2]): 97.2%
- Activity (DV-90 [3]): Active
- Activity (NCI-H1373 [4]): 22%
- Activity (NCI-H23): Active
- Activity (DV-90 [5]): Active
- Activity (A549 [6]): 33%
- Activity (HFF-1): Non-Toxic
- Activity (NCI-H1792): Active
- Activity (NCI-H2347): Active
- T/C [7]: 10%
- Activity (NCI-H1373 [8]): 2.4%
- Activity (NCI-H1373 [9]): 2.9%
- Activity (DV-90 [10]): 41%
- Activity [11]: 7%
- Activity (A549 [12]): 64%
- Activity (NCI-H460 [13]): 3.7%
- Activity (NCI-H460 [14]): 4.5%
- Activity (NCI-H441): Active

SMILES: Cc1sc2c(c1C)C(c1ccc(Cl)cc1)=N[C@@H](CC(=O)Nc1ccc(O)cc1)c1nnc(C)n1-2 [BIRABRESIB]
- viability at 0.5 µM (DV-90 [15]): 57.6%
- Activity (DV-90 [16]): 27.6%
- Activity (A549 [17]): 1.5%
- Activity (A549 [18]): 1.1%
- Activity (NCI-H1373 [19]): 2.6%
- Activity (A549 [20]): 0.1%

SMILES: CCNC(=O)C[C@@H]1N=C(c2ccc(Cl)cc2)c2cc(OC)ccc2-n2c(C)nnc21 [MOLIBRESIB]
- Activity (DV-90 [21]): 22%
- Activity (NCI-H1373 [22]): 47%
- Activity (NCI-H460 [23]): 53%
- Activity (NCI-H460 [24]): 46%
- Activity (NCI-H460 [25]): 45%
- Activity (NCI-H460 [26]): 56%
